From US5093477A, “Rapidly cleavable substrate for HIV protease” (priority 1988, dated 1992) come the findings set out here.

Where a SMILES comes first, the peptide text is derived from it. [ ]: non-standard residue; d: D form. The star is where a group is joined. Sta = CC(C)C[C@H](N)[C@@H](O)CC(=O)O; Isovaleryl = CC(C)CC(=O)*

Assay type in all cases: biochemical
Assay [1] addresses T1, HIV protease (Human immunodeficiency virus type 1 group M subtype B, UniProt P04585).
T1 construct: The enzyme is composed of only 99 amino acids and evidently eliminates itself from the pol gene
The experiment in a line: HIV protease inhibitor test with Ser-Phe-Asn-Phe-Opr-Gln-Ile as substrate. As to conditions: substrate Ser-Phe-Asn-Phe-Opr-Gln-Ile 2 mg/ml, HIV protease No. I (1:10), blank 33.62 %. The method, then:
A) General procedure for testing inhibitors of HIV protease with Ser-Phe-Asn-Phe-Opr-Gln-Ile
2 mg of Ser-Phe-Asn-Phe-Opr-Gln-Ile are dissolved in 1 ml of MGTE15 buffer (possibly using ultrasound) and subsequently filtered through a sterile filter (0.45 μm).
2.5 times the desired molarity of the inhibitor per ml of solution are weighed in and dissolved in DMSO (10% of the final volume). The solution is diluted to the final volume with MGTE15 buffer and filtered through a sterile filter (0.45 μm).
5 μl of the HIV protease solution are diluted with MGTE25 buffer as required.
10 μl portions of the substrate solution are pipetted into test tubes (16×100) with screw caps. 10 μl of MGTE15 buffer which contains 10% DMSO are pipetted into the blank. 10 μl portions of the inhibitor solutions are added to the remaining test tubes. These samples are incubated at 37° C. for 5-10 minutes and then 5 μl of the protease solution are added to each. After reaction at 37° C. for 2 hours, 10 or 20 μl of each sample (depending on the sensitivity of the HPLC apparatus) are removed by pipette, placed in microvials and diluted with 120 μl of the HPLC solvent.
(§1) Solvent system: 80% 0.1 M phosphoric acid pH 2.5. 20% (w/w) acetonitrile
(§2) Column: Merck ®LICHROSORB RP18 (5 μm) 250×4
(§3) Column temperature: 42° C.
(§4) Detector parameters: 215 nm, 0.08 AUF, 18.2° C.
(§5) Analysis time: 11 minutes
The % content of the tetrapeptide peak relative to the tetrapeptide+heptapeptide total corresponds to the proportion cleaved.

Assay [2] deals with T1, HIV protease. In words: HIV protease kinetics: comparison of the cleavage rate of several substrates (Tab. 6). As to conditions: substrate 2 mg/ml, HIV protease No. II (1:4). The method, then:
C) Procedure for the HIV protease kinetics (Tab. 6) 10 μl of substrate solution (2 mg/ml) in MGTEl5 buffer and 10 μl of MGTE15 buffer are combined and incubated at 37° C. for 5-10 minutes. 5 μl of HIV protease No. II (diluted 1:4 with MGTE25 buffer) are added to this, and the mixture is shaken at 37° C. Subsequent procedure as in B).
Column: Merck HIBAR ®LICHROSORB RP8 (7 μm) 250×4
Flow rate: 1 ml min for SFNFPQI and SFNFOQI 0.5 ml/min for […] and VSQNYOIVQ. Otherwise as in Ae).

Assay [3] deals with T1, HIV protease. The experiment in a line: HIV protease kinetics: cleavage of peptide substrates followed by HPLC (Tab. 1-4). As to conditions: substrate 4 mg/ml, HIV protease No. II (5 μl). The method, then: e) Conditions for HPLC analysis:
as §1, §2, §3, §4, §5
Retention time of the substrate: 8.1 minutes
Retention time of the N-terminal tetrapeptide: 3.9 minutes
Under the conditions chosen here, the heptapeptides are separated from the N-terminal tetrapeptide produced in the enzymatic cleavage. The % content of the tetrapeptide peak relative to the tetrapeptide+heptapeptide total corresponds to the proportion cleaved.
B) Procedure for HIV protease kinetics (Tab. 1-4)
10 μl of substrate solution (2-4 mg/ml) in MGTE15 buffer and 10 μl of MGTE15 buffer which contains 10% dimethyl sulfoxide are combined and incubated at 37° C. for 5-10 minutes. 5 μl of the HIV protease solution in MGTE25 buffer are added to this, and the mixture is shaken at 37° C. […] The microliter syringe is used to load the total amount onto the HPLC column. HPLC conditions as in A).

For `CC(C)CC(=O)N[C@H](C(=O)N[C@H](C(=O)N[C@@H](CC(C)C)[C@@H](O)CC(=O)N[C@@H](C)C(=O)N[C@@H](CC(C)C)[C@@H](O)CC(=O)O)C(C)C)C(C)C` [Pepstatin A] (Isovaleryl-VV[Sta]A[Sta]-OH), the “Cleavage (%)” value on HIV protease [1] (inhibitor 10^-4 M) was found to be 1.25%; at HIV protease [1] (inhibitor 10^-5 M), 4.73%; at HIV protease [1] (inhibitor 10^-6 M), 18.22%; on HIV protease [1] (inhibitor 10^-7 M), 25.09%.

Take “H-SFNFPQI-OH [SFNFPQI, H-Ser-Phe-Asn-Phe-Pro-Gln-Ile-OH]”: the “% tetrapeptide = % cleavage” value is 0.25% at HIV protease [2] (5 min); 4.68% at HIV protease [2] (10 min); 7.01% on HIV protease [2] (20 min); 11.34% at HIV protease [2] (40 min); 19.50% on HIV protease [2] (80 min); 34.19% at HIV protease [2] (160 min). The “% tetrapeptide = % cleavage” value on HIV protease [2] (320 min) worked out at 48.18%. Further, at HIV protease [3] (5 minutes, both experiments), the “% cleavage after 5 minutes' cleavage time (text summary of Tab. 1 and 2)” value was “about 4%”. Further, the “% cleavage” value on HIV protease [3] (Experiment A, 5 min) is listed as 4.00%; at HIV protease [3] (Experiment A, 10 min), 8.19%; at HIV protease [3] (Experiment A, 20 min), 14.57%; at HIV protease [3] (Experiment A, 40 min) it was 23.40%; on HIV protease [3] (Experiment A, 80 min), 39.43%; at HIV protease [3] (Experiment A, 160 min), 58.39%. Further, the “% cleavage” value was determined as 70.16% on HIV protease [3] (Experiment A, 320 min); 4.15% on HIV protease [3] (Experiment B, 5 min); 7.54% at HIV protease [3] (Experiment B, 10 min); 14.35% on HIV protease [3] (Experiment B, 20 min); 23.00% at HIV protease [3] (Experiment B, 40 min); 37.68% on HIV protease [3] (Experiment B, 80 min). Further, the “% cleavage” value on HIV protease [3] (Experiment B, 160 min) came out at 57.11%; on HIV protease [3] (Experiment B, 320 min), 72.51%.

For the compound H-VSQNYPIVQ-OH, the “% tetrapeptide = % cleavage” value was found to be 3.66% at HIV protease [2] (5 min); 6.53% at HIV protease [2] (10 min); 11.31% on HIV protease [2] (20 min); 20.32% on HIV protease [2] (40 min); 31.49% on HIV protease [2] (80 min); 55.00% on HIV protease [2] (160 min). Besides, on HIV protease [2] (320 min), the “% tetrapeptide = % cleavage” value worked out at 62.48%.

Turning to “H-Val-Ser-Gln-Asn-Tyr-Opr-Ile-Val-Gln-OH [VSQNYOIVQ]”, the “% tetrapeptide = % cleavage” value was determined as 10.27% at HIV protease [2] (5 min); 20.72% on HIV protease [2] (10 min); 40.47% on HIV protease [2] (20 min); 60.50% on HIV protease [2] (40 min); 88.98% at HIV protease [2] (80 min); 100.00% on HIV protease [2] (160 min). For the same compound, the “% tetrapeptide = % cleavage” value at HIV protease [2] (320 min) worked out at 100.00%.
